Results reported in patent publication US8609661B2, “Pyrimido-pyrrolo-quinoxalinedione inhibitors of cystic fibrosis transmembrane conductance regulator protein and uses therefor” (The Regents of the University of California, priority 2009, dated 2013).
Read-outs that look alike come from different tables or passages of the source.

Biological target: T1, human wildtype CFTR (Homo sapiens, UniProt P13569)
T1 construct: expressed in transfected cells; host or cells: Fischer rat thyroid (FRT) cells
T1 sequence (P13569 whole entry): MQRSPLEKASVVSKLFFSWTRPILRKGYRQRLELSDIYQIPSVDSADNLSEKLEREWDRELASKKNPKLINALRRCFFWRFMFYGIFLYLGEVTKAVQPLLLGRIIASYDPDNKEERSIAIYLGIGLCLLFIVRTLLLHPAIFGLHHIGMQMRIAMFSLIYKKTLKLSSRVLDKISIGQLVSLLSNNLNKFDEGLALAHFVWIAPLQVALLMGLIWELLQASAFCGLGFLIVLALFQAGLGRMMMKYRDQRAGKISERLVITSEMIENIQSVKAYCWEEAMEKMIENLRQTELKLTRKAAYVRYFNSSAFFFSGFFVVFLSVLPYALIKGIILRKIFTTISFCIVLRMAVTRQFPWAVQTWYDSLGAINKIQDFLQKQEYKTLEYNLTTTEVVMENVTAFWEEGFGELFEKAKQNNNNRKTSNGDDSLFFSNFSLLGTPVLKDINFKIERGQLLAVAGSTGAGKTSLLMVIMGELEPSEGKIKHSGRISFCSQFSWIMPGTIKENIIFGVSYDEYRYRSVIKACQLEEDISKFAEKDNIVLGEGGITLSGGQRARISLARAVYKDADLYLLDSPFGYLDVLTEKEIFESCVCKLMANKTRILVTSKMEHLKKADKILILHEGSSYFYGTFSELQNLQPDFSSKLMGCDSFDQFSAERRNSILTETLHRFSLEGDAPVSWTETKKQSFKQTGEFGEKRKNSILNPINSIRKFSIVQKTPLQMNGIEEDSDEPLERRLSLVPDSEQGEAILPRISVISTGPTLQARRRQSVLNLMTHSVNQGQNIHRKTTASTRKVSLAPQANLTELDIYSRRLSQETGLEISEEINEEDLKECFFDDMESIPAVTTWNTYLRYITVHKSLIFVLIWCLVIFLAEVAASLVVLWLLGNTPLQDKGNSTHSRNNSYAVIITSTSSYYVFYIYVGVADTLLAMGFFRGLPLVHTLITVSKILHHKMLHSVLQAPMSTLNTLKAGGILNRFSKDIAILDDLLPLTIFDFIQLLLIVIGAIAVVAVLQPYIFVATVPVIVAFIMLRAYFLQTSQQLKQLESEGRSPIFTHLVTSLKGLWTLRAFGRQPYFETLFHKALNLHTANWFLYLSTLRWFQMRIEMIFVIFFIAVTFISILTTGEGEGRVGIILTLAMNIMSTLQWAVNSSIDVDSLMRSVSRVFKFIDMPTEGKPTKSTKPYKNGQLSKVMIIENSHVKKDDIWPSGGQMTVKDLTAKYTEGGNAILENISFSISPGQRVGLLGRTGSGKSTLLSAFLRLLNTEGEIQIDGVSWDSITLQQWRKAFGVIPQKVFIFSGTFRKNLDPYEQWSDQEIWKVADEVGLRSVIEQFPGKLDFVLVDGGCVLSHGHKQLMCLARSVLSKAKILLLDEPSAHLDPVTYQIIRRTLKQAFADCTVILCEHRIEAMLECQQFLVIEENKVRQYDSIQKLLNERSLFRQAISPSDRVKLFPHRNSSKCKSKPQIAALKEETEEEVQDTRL
Assay: Fluorescence platereader assay of CFTR-mediated iodide influx (YFP quenching) in FRT cells
Assay type: cell-based
Settings: for inhibition at 5 µM / inhibition at 25 µM: FRT; for IC50: apparent IC50 from concentration-inhibition data, fluorescence platereader assay
Experimental: A. Cell lines and compounds—Fischer rat thyroid (FRT) cells co-expressing human wildtype CFTR and the halide indicator YFP-H148Q/1152L were generated as described (see, e.g., Ma et al., J. Clin. Invest. 110:1651-1658 (2002)). Cells were plated in 96-well black-walled microplates (Corning Costar) at a density of 20,000 cells per well in Coon's modified F12 medium supplemented with 5% fetal calf serum, 2 mM L-glutamine, 100 U/mL penicillin, and 100 μg/ml streptomycin. Assays were performed at 48 h after plating the cells when the cells were just confluent. For some experiments, measurements were made using T84 human intestinal epithelial cells and for other experiments, measurements were obtained using primary cultures of human bronchial epithelial cells, which were obtained and grown essentially as previously described (see, e.g., 3 and 27).
B. Compound Screening—Assays were performed using an automated screening platform (Beckman) equipped with FLUOStar fluorescence platereaders (BMG Lab Technologies, Offenburg, Germany) as described (see Ma et al., supra). Each well of a 96-well plate containing FRT cells was washed 3 times in PBS (300 μL/wash), leaving 50 μL PBS. […] After 15 min, 96-well plates were transferred to a plate reader for fluorescence assay. Each well was assayed individually for CFTR-mediated iodide influx by recording fluorescence continuously (200 ms per point) for 2 s (baseline) and then for 10 s after rapid addition of 160 μL of isosmolar PBS in which 137 mM chloride was replaced by iodide. The initial rate of iodide influx was computed from fluorescence data by non-linear regression.
Collections of synthetic and natural compounds were screened according to the screening procedures described in Example 2. A cell-based fluorescence assay was used in which CFTR inhibitors were identified by reduced iodide influx in FRT cells co-expressing human CFTR and a YFP halide sensor. CFTR was maximally activated by a mixture of agonists having different activating mechanisms. Inhibition of iodide influx was observed as reduced YFP fluorescence quenching in response to rapid iodide addition to each well of 96-well plates. […]

[1] = Table 2, screening, 5 μM, read-out: % Inhibition at 5 μM
[2] = Table 2, screening, 25 μM, read-out: % Inhibition at 25 μM
[3] = read-out: % inhibition at 25/5 μM (5 μM value), Table 1, 5 μM compound
[4] = read-out: % inhibition at 25/5 μM (25 μM value), Table 1, 25 μM compound

Structure (SMILES) | inhibition at 5 µM [1] [%] | inhibition at 25 µM [2] [%] | IC50 [nM] | inhibition at 5 µM [3] [%] | inhibition at 25 µM [4] [%]
Cc1cccc(-c2c3c(=O)n(C)c(=O)n(C)c3c3n2-c2ccccc2NC3c2ccco2)c1 (stereo not drawn) [PPQ-106, 7,9-Dimethyl-11-(3-methylphenyl)-6-(furan-2-yl)-5,6-dihydro-pyrimido[4′,5′-3,4]pyrrolo[1,2-a]quinoxaline-8,10-(7H,9H)-dione] | 49 | 96 |  |  | 
Cc1cc2c(cc1C)-n1c(-c3ccccc3)c3c(=O)n(C)c(=O)n(C)c3c1C(c1ccco1)N2 (stereo not drawn) [PPQ-107, 2,3,7,9-Tetramethyl-11-phenyl-6-(furan-2-yl)-5,6-dihydro-pyrimido[4′,5′-3,4]pyrrolo[1,2-a]quinoxaline-8,10-(7H,9H)-dione] | 24 | 87 |  |  | 
Cc1ccccc1-c1c2c(=O)n(C)c(=O)n(C)c2c2n1-c1ccccc1NC2c1ccco1 (stereo not drawn) [PPQ-108, 7,9-Dimethyl-11-(2-methylphenyl)-6-(furan-2-yl)-5,6-dihydro-pyrimido[4′,5′-3,4]pyrrolo[1,2-a]quinoxaline-8,10-(7H,9H)-dione] | 18 | 70 |  |  | 
Cc1ccc(-c2c3c(=O)n(C)c(=O)n(C)c3c3n2-c2ccccc2NC3c2ccc(C)o2)cc1 (stereo not drawn) [PPQ-110, 7,9-Dimethyl-11-(4-methylphenyl)-6-(5-methylfuran-2-yl)-5,6-dihydro-pyrimido[4′,5′-3,4]pyrrolo[1,2-a]quinoxaline-8,10-(7H,9H)-dione] | 21 | 57 |  |  | 
Cc1ccc(C2Nc3ccccc3-n3c(-c4ccc(Cl)cc4)c4c(=O)n(C)c(=O)n(C)c4c32)o1 (stereo not drawn) [PPQ-111, 7,9-Dimethyl-11-(4-cholophenyl)-6-(5-methylfuran-2-yl)-5,6-dihydro-pyrimido[4′,5′-3,4]pyrrolo[1,2-a]quinoxaline-8,10-(7H,9H)-dione] | 31 | 75 |  |  | 
Cn1c(=O)c2c(-c3ccccc3)n3c(c2n(C)c1=O)C(c1cccs1)Nc1ccccc1-3 (stereo not drawn) [PPQ-113, 7,9-Dimethyl-11-phenyl-6-(thienyl-2-yl)-5,6-dihydro-pyrimido[4′,5′-3,4]pyrrolo[1,2-a]quinoxaline-8,10-(7H,9H)-dione] | 34 | 77 |  |  | 
Cc1cccc(-c2c3c(=O)n(C)c(=O)n(C)c3c3n2-c2ccccc2NC3c2cccs2)c1 (stereo not drawn) [PPQ-114, 7,9-Dimethyl-11-(3-methylphenyl)-6-(thienyl-2-yl)-5,6-dihydro-pyrimido[4′,5′-3,4]pyrrolo[1,2-a]quinoxaline-8,10-(7H,9H)-dione] | 29 | 79 |  |  | 
Cc1ccccc1-c1c2c(=O)n(C)c(=O)n(C)c2c2n1-c1ccccc1NC2c1cccs1 (stereo not drawn) [PPQ-117, 7,9-Dimethyl-11-(2-methylphenyl)-6-(thienyl-2-yl)-5,6-dihydro-pyrimido[4′,5′-3,4]pyrrolo[1,2-a]quinoxaline-8,10-(7H,9H)-dione] | 19 | 67 |  |  | 
Cn1c(=O)c2c(-c3ccccc3)n3c(c2n(C)c1=O)C(c1cccc(F)c1F)Nc1ccccc1-3 (stereo not drawn) [PPQ-201, 7,9-Dimethyl-11-phenyl-6-(2,3-difluorophenyl)-5,6-dihydro-pyrimido[4′,5′-3,4]pyrrolo[1,2-a]quinoxaline-8,10-(7H,9H)-dione] | 72 | 93 | 1200 | 72 | 93
Cc1cc2c(cc1C)-n1c(-c3ccccc3)c3c(=O)n(C)c(=O)n(C)c3c1C(c1ccc(O)cc1)N2 (stereo not drawn) [PPQ-203, 2,3,7,9-Tetramethyl-11-phenyl-6-(4-hydroxyphenyl)-5,6-dihydro-pyrimido[4′,5′-3,4]pyrrolo[1,2-a]quinoxaline-8,10-(7H,9H)-dione] | 80 | > 95 | 1500 | 80 | 
COc1cccc(C2Nc3ccccc3-n3c(-c4ccccc4)c4c(=O)n(C)c(=O)n(C)c4c32)c1 (stereo not drawn) [PPQ-204, 7,9-Dimethyl-11-phenyl-6-(3-methoxyphenyl)-5,6-dihydro-pyrimido[4′,5′-3,4]pyrrolo[1,2-a]quinoxaline-8,10-(7H,9H)-dione] | 63 | 86 | 1700 | 63 | 86
Cn1c(=O)c2c(-c3ccccc3)n3c(c2n(C)c1=O)C(c1ccc(O)cc1)Nc1ccccc1-3 (stereo not drawn) [PPQ-207, 7,9-Dimethyl-11-phenyl-6-(4-hydroxyphenyl)-5,6-dihydro-pyrimido[4′,5′-3,4]pyrrolo[1,2-a]quinoxaline-8,10-(7H,9H)-dione] | 64 | 86 | 4500 | 64 | 86

Further lines, results first:

inhibition at 5 µM [1] [%] | inhibition at 25 µM [2] [%] | IC50 [nM] | inhibition at 5 µM [3] [%] | inhibition at 25 µM [4] [%] | Structure (SMILES)
78 | 78 | 1500 |  |  | Cc1ccc(C2Nc3cc(C)c(C)cc3-n3c(-c4ccccc4F)c4c(=O)n(C)c(=O)n(C)c4c32)o1 (stereo not drawn) [PPQ-105, 2,3,7,9-Tetramethyl-11-(2-fluorophenyl)-6-(5-methylfuran-2-yl)-5,6-dihydro-pyrimido[4′,5′-3,4]pyrrolo[1,2-a]quinoxaline-8,10-(7H,9H)-dione]
12 | 68 |  |  |  | COc1ccc(-c2c3c(=O)n(C)c(=O)n(C)c3c3n2-c2ccccc2NC3c2ccc(C)o2)cc1 (stereo not drawn) [PPQ-109, 7,9-Dimethyl-11-(4-methoxyphenyl)-6-(5-methylfuran-2-yl)-5,6-dihydro-pyrimido[4′,5′-3,4]pyrrolo[1,2-a]quinoxaline-8,10-(7H,9H)-dione]
11 | 54 |  |  |  | Cn1c(=O)c2c(-c3ccccc3)n3c(c2n(C)c1=O)C(c1ccco1)Nc1ccccc1-3 (stereo not drawn) [PPQ-112, 7,9-Dimethyl-11-phenyl-6-(5-furan-2-yl)-5,6-dihydro-pyrimido[4′,5′-3,4]pyrrolo[1,2-a]quinoxaline-8,10-(7H,9H)-dione]
14 | 61 |  |  |  | Cc1cc2c(cc1C)-n1c(-c3ccccc3)c3c(=O)n(C)c(=O)n(C)c3c1C(c1cccs1)N2 (stereo not drawn) [PPQ-115, 2,3,7,9-Tetramethyl-11-phenyl-6-(thienyl-2-yl)-5,6-dihydro-pyrimido[4′,5′-3,4]pyrrolo[1,2-a]quinoxaline-8,10-(7H,9H)-dione]
47 | 76 |  |  |  | Cn1c(=O)c2c(-c3ccccc3F)n3c(c2n(C)c1=O)C(c1cccs1)Nc1ccccc1-3 (stereo not drawn) [PPQ-116, 7,9-Dimethyl-11-(2-fluorophenyl)-6-(thienyl-2-yl)-5,6-dihydro-pyrimido[4′,5′-3,4]pyrrolo[1,2-a]quinoxaline-8,10-(7H,9H )-dione]
60 | 90 | 1200 | 60 | 90 | Cn1c(=O)c2c(-c3ccccc3)n3c(c2n(C)c1=O)C(c1cccc([N+](=O)[O-])c1)Nc1ccccc1-3 (stereo not drawn) [PPQ-202, 7,9-Dimethyl-11-phenyl-6-(3-nitrophenyl)-5,6-dihydro-pyrimido[4′,5′-3,4]pyrrolo[1,2-a]quinoxaline-8,10-(7H,9H)-dione]
61 | 81 | 2000 | 61 | 81 | Cn1c(=O)c2c(-c3ccccc3)n3c(c2n(C)c1=O)C(c1ccccc1F)Nc1ccccc1-3 (stereo not drawn) [PPQ-205, 7,9-Dimethyl-11-phenyl-6-(2-fluorophenyl)-5,6-dihydro-pyrimido[4′,5′-3,4]pyrrolo[1,2-a]quinoxaline-8,10-(7H,9H)-dione]
 |  | 2500 |  |  | Cn1c(=O)c2c(-c3ccccc3)n3c(c2n(C)c1=O)C(c1ccccc1)Nc1ccccc1-3 (stereo not drawn) [PPQ-206, 7,9-Dimethyl-11-phenyl-6-phenyl-5,6-dihydro-pyrimido[4′,5′-3,4]pyrrolo[1,2-a]quinoxaline-8,10-(7H,9H)-dione]
13 | 56 | 100000 |  | 56 | COc1cc(O)ccc1C1Nc2ccccc2-n2c(-c3ccccc3)c3c(=O)n(C)c(=O)n(C)c3c21 (stereo not drawn) [PPQ-208, 7,9-Dimethyl-11-phenyl-6-(2-methoxy-4-hydroxyphenyl)-5,6-dihydro-pyrimido[4′,5′-3,4]pyrrolo[1,2-a]quinoxaline-8,10-(7H,9H)-dione]
71 | 94 | 1700 | 71 | 94 | Cc1cccc(-c2c3c(=O)n(C)c(=O)n(C)c3c3n2-c2ccccc2NC3c2ccc(O)cc2)c1 (stereo not drawn) [PPQ-209, 7,9-Dimethyl-11-(3-methylphenyl)-6-(4-hydroxyphenyl)-5,6-dihydro-pyrimido[4′,5′-3,4]pyrrolo[1,2-a]quinoxaline-8,10-(7H,9H)-dione]
